Data taken from publication PMC11191101, “Investigation of Newly Synthesized Fluorinated Isatin-Hydrazones by In Vitro Antiproliferative Activity, Molecular Docking, ADME Analysis, and e-Pharmacophore Modeling” (ACS Omega, 2024).
“Also recorded” adds a separate entry of the source.

Legend:
[1] = tested on: A549 human lung epithelial carcinoma cell line; assay: MTT cytotoxicity, A549 lung cancer cells; type: cell-based; conditions: for cytotoxic effect on A549 lung cancer cell line (in words) / selectivity index (SI), HEK-293T IC50 divided by A549 IC50: 72 h; for cytotoxic effect on A549 lung cancer cell line (in words): up to 200 μM; for selectivity index (SI), HEK-293T IC50 divided by A549 IC50: IC50 >200 taken as 200; for IC50: MTT, 72 h, 200, 100, 50, 25 μM tested
Experimental: (§1) Compounds (1–15) were screened in two cancer and normal cell lines at concentrations of 200, 100, 50, and 25 μM for 72 h.
(§2) This section of the study was performed following the procedure described in our previous study.[51],[52] The human lung cancer cell line (A549; ATCC CCL-185), human liver cancer cell line (HepG2; ATCC HB-8065), and human normal embryonic kidney cell line (HEK-293T) were cultured in high-glucose Dulbecco’s modified Eagle’s medium supplemented with 10% fetal bovine serum and 1% glutamax. Cells were seeded at a density of 5 × 10^3 cells/well in sterile 96-well plates and incubated for 24 h. Following incubation, the cells were exposed to the prepared compounds (1–15) and cisplatin at 200, 100, 50, and 25 μM concentrations for 72 h. After the incubation period, the medium in the plates was carefully removed and the prepared MTT solution was added to each well of the plates. The plates were incubated for 2 h in an incubator. Absorbance was measured using an Epoch 2 ELISA plate reader at 590 nm. The IC50 values were calculated using GraphPad Prism Software version 5.

[2] = tested on: HEK-293T human normal embryonic kidney cell line; assay: MTT toxicity, HEK-293T normal cells; type: cell-based; conditions: 72 h; for IC50: MTT, normal cell line, 200, 100, 50, 25 μM tested; for toxic effect on healthy HEK-293T cells (in words): up to 200 μM
Experimental: as §1, §2

[3] = tested on: HepG2 human liver epithelial carcinoma cell line; assay: MTT cytotoxicity, HepG2 liver cancer cells; type: cell-based; conditions: for cytotoxic effect on HepG2 liver cancer cell line (in words) / selectivity index (SI), HEK-293T IC50 / HepG2 IC50: 72 h; for cytotoxic effect on HepG2 liver cancer cell line (in words): up to 200 μM; for selectivity index (SI), HEK-293T IC50 / HepG2 IC50: IC50 >200 taken as 200; for IC50: Homo sapiens, HepG2, MTT, 72 h, 200, 100, 50, 25 μM tested
Experimental: as §1, §2

Structure (SMILES) | melting point [°C] | cytotoxic effect on A549 lung cancer cell line (in words) [1] | selectivity index (SI), HEK-293T IC50 divided by A549 IC50 [1] | IC50 ([1]; Homo sapiens, A549) [µM] | IC50 ([2]; Homo sapiens, HEK-293T) [µM] | cytotoxic effect on HepG2 liver cancer cell line (in words) [3] | selectivity index (SI), HEK-293T IC50 / HepG2 IC50 [3] | IC50 [3] [µM] | toxic effect on healthy HEK-293T cells (in words) [2] | IC50 [1] [µM] | IC50 [2] [µM]
O=C1Nc2ccc(F)cc2C1=NN=Cc1ccc([N+](=O)[O-])cc1 [Compound 8, 5-Fluoro-3-{[4-nitrobenzylidene]hydrazinylidene}indolin-2-one] | 249 to 251 | cytotoxic effect | 0.14 | 42.4 | 6.04 | cytotoxic effects | 0.12 | 48.4 |  |  | 
NN=C1C(=O)Nc2ccc(F)cc21 [Compound 1, 5-Fluoro-3-hydrazonoindolin-2-one] | 203 to 204 | not active |  | > 200 | > 200 |  |  | > 200 |  |  | 
Cc1ccc(C=NN=C2C(=O)Nc3ccc(F)cc32)cc1 [Compound 6, 5-Fluoro-3-{[4-methylbenzylidene]hydrazinylidene}indolin-2-one] | 241 to 242 | not active |  | > 200 | 140 |  |  | > 200 | toxic effect |  | 
COc1cccc(C=NN=C2C(=O)Nc3ccc(F)cc32)c1O [Compound 12, 5-Fluoro-3-{[2-hydroxy-3-methoxybenzylidene]hydrazinylidene}indolin-2-one] | 244 to 246 | cytotoxic effect | > 1.33 | 150 | > 200 |  |  | > 200 |  |  | 
O=C1Nc2ccc(F)cc2C1=NN=Cc1cccc(O)c1 [Compound 10, 5-Fluoro-3-{[3-hydroxybenzylidene]hydrazinylidene}indolin-2-one] | 260 to 261 | cytotoxic effect | 0.48 | 180 | 87 | cytotoxic effects | 0.52 | 166 |  |  | 
O=C1Nc2ccc(F)cc2C1=NN=Cc1ccc(Br)cc1 [Compound 3, 5-Fluoro-3-{[4-bromobenzylidene]hydrazinylidene}indolin-2-one] | 262 to 263 | cytotoxic effect | 0.13 | 186 | 25 |  |  | > 200 | highly toxic effects |  | 
COc1ccc(C=NN=C2C(=O)Nc3ccc(F)cc32)cc1O [Compound 14, 5-Fluoro-3-{[3-hydroxy-4-methoxybenzylidene]hydrazinylidene}indolin-2-one] | 263 to 264 | cytotoxic effect | > 1.73 | 115 | > 200 |  |  | > 200 |  |  | 
O=C1Nc2ccc(F)cc2C1=NN=Cc1ccc(O)cc1 [Compound 11, 5-Fluoro-3-{[4-hydroxybenzylidene]hydrazinylidene}indolin-2-one] | 275 to 276 | not active |  | > 200 | > 200 |  |  | > 200 |  |  | 
COc1ccc(C=NN=C2C(=O)Nc3ccc(F)cc32)cc1 [Compound 7, 5-Fluoro-3-{[4-methoxybenzylidene]hydrazinylidene}indolin-2-one] | 247 to 248 | not active |  | > 200 | 197 | cytotoxic effects | 1.29 | 153 |  |  | 
O=C1Nc2ccc(F)cc2C1=NN=Cc1ccc(Cl)cc1 [Compound 4, 5-Fluoro-3-{[4-chlorobenzylidene]hydrazinylidene}indolin-2-one] | 257 to 258 | not active |  | > 200 | 29.3 |  |  | > 200 | toxic effect; also recorded: highly toxic effects |  | 
COc1ccc(C=NN=C2C(=O)Nc3ccc(F)cc32)c(O)c1 [Compound 13, 5-Fluoro-3-{[2-hydroxy-4-methoxybenzylidene]hydrazinylidene}indolin-2-one] | 257 to 258 | not active |  | > 200 | > 200 |  |  | > 200 |  |  | 
O=C1Nc2ccc(F)cc2C1=NN=Cc1ccccc1O [Compound 9, 5-Fluoro-3-{[2-hydroxybenzylidene]hydrazinylidene}indolin-2-one] | 252 to 253 | not active |  | > 200 | 142 |  |  | > 200 | toxic effect |  | 
O=C1Nc2ccc(F)cc2C1=NN=Cc1ccc(F)cc1 [Compound 5, 5-Fluoro-3-{[4-fluorobenzylidene]hydrazinylidene}indolin-2-one] | 246 to 248 | not active |  | > 200 | 193 | cytotoxic effects | 1.78 | 108 | did not show high toxicity |  | 
COc1cc(C=NN=C2C(=O)Nc3ccc(F)cc32)ccc1O [Compound 15, 5-Fluoro-3-{[4-hydroxy-3-methoxybenzylidene]hydrazinylidene}indolin-2-one] | 232 to 233 | not active |  | > 200 | > 200 |  |  | > 200 |  |  | 
O=C1Nc2ccc(F)cc2C1=NN=Cc1ccccc1 [Compound 2, 5-Fluoro-3-{[benzylidene]hydrazinylidene}indolin-2-one] | 229 to 230 | not active |  | > 200 | > 200 |  |  | > 200 |  |  | 
N.N.[Cl][Pt][Cl] [cisplatin, reference compound] |  |  |  |  |  |  |  |  |  | 4.19 | 7.48
